We go through 4 compounds from patent US6900221B1, “Stable polymorph on N-(3-ethynylphenyl)-6, 7-bis (2methoxyethoxy)-4-quinazolinamine hydrochloride, methods of production, and pharmaceutical uses thereof” (OSI Pharmaceuticals, Inc., priority 1999, dated 2005).

The subject of series [1] is cancer patients with multiple tumor types. Put plainly: Phase I clinical studies, preliminary evidence of effectiveness in cancer patients. It counts as in vivo, human. Particulars: one Phase I study of 28 patients.
A short description of series [2]: Thermodynamic stability of the polymorphic forms. Particulars: hydrochloride polymorph forms compared. It counts as physicochemical.
The test system of series [3] is refractory ovarian cancer. Put plainly: Phase II single agent study in refractory ovarian cancer. It counts as in vivo, human. Particulars: 150 mg daily, preliminary results. An excerpt: Evidence of anti-tumor activity can also be seen in the patients with ovarian cancer in the on-going Phase II study.
Series [4] has as its system refractory non-small cell lung cancer (NSCLC). Particulars: 150 mg daily, first 19 evaluable patients.
Excerpt: Qualification criteria for the open label, single agent study required the patients to have failed platinum-based chemotherapy and to have tumors that are histopathologically confirmed to be EGFR positive. The primary endpoint in the study is response rate with stable disease and time-to-progression amongst the secondary end-points.
In series [5] the test system is advanced head and neck cancer. Put plainly: Phase II single agent study in advanced head and neck cancer. The note with it: 150 mg daily.
Series [6] can be described thus: Phase I clinical studies, safety. The class given is in vivo, human. As to the method:
[…]. […] In a daily dosing regimen study the dose limiting toxicity at 200 mg/day was diarrhea. This observed side effect was effectively controlled at the 150 mg daily dose level using Loperamide (Imodium®). […] The rash has a unique histopathology of PMN infiltration with mild epidermal hyperproliferation. It is not consistent with drug hypersensitivity nor does it appear to be a “named” dermatological condition. This rash has not been a significant impediment to patients staying on the Phase II trials. […]. […] For example, in one Phase I study of 28 patients, 8 patients remain alive over a year after inception of treatment and 12 patients remained alive from 9-22 months.

Series [7] in a line: Solubility in aqueous compositions. The class given is physicochemical. Particulars: compared with the hydrochloride compound.
[8] abbreviates: advanced head and neck cancer, preliminary results.

On to `C#Cc1cccc(Nc2ncnc3cc(OCCOC)c(OCCOC)cc23)c1.Cl` [polymorph B, N-(3-ethynylphenyl)-6,7-bis(2-methoxyethoxy)-4-quinazolinamine hydrochloride], for which, in series [1], the “patients alive over a year after inception of treatment” value stood at 8 patients and the “patients remained alive from 9-22 months” value stood at 12 patients. Further, in series [2], the thermodynamic stability entry was “thermodynamically most stable”. For the same compound, in series [3], the “patients with objective partial responses” value is on record as 2 patients and the “patients with stabilization of disease status” value (shortened to “patients with stabilization”) is given as 4 patients. For the same compound, in series [4], the “patients with objective partial responses” value came out at 5 patients and the “patients with stabilization” value stood at 4 patients. In series [5] (setting [8]), the “patients with objective partial responses” value is 3 patients and the “patients with stabilization” value was determined as 9 patients. Moreover, the “patients reporting acneiform rash” value in series [5] (first group of patients in the head and neck cancer study) was “approximately 70%”. In addition, the most significant toxicity result in series [6] (150 mg daily) is recorded as “monomorphic acneiform rash”. Moreover, the “severity of adverse events” value in series [6] (Phase I, volunteers and cancer patients, dose of 150 mg/day) was “no adverse events that were greater than moderate in severity”. Moreover, the dose limiting toxicity entry in series [6] (daily dosing regimen study, 200 mg/day) is listed as “diarrhea”. Besides, the safety profile result in series [6] (total of 290 patients in Phase I and ongoing Phase II studies) is reported as “well tolerated safety profile”.
As for `C#Cc1cccc(Nc2ncnc3cc(OCCOC)c(OCCOC)cc23)c1` [mesylate compounds, N-(3-ethynylphenyl)-6,7-bis(2-methoxyethoxy)-4-quinazolinamine], the “solubility in aqueous compositions” value in series [7] was “more soluble”.
For the compound `C#Cc1cccc(Nc2ncnc3cc(OCCOC)c(OCCOC)cc23)c1.Cl` [polymorph A, N-(3-ethynylphenyl)-6,7-bis(2-methoxyethoxy)-4-quinazolinamine hydrochloride], the thermodynamic stability result in series [2] is “thermodynamically less stable”.
On the same count and under the same terms, with `C#Cc1cccc(Nc2ncnc3cc(OCCOC)c(OCCOC)cc23)c1.Cl` [hydrochloride compound, [6,7-bis(2-methoxyethoxy)-quinazolin-4-yl]-(3-ethynylphenyl)amine hydrochloride, reference compound] the entry was “partially reduced stability”.
